Measured values published in patent publication US6787651B2, “Substituted indoles, pharmaceutical compounds containing such indoles and their use as PPAR-γ binding agents” (SmithKline Beecham Corporation, priority 2000, dated 2004).
Where two headings read alike, the source gives them in different places.

How the values were obtained:
[1] = target: T1, PPARγ ligand binding domain (LBD) (amino acids 195-475) (Homo sapiens, UniProt P37231); experiment: PPAR-γ binding assay (spin plate / gel filtration binding assay, displacement of [3H]BRL 49653)
T1 construct: polyHis; made in house; host or cells: Escherichia coli
T1 sequence (P37231 195-475 isoform P37231-2): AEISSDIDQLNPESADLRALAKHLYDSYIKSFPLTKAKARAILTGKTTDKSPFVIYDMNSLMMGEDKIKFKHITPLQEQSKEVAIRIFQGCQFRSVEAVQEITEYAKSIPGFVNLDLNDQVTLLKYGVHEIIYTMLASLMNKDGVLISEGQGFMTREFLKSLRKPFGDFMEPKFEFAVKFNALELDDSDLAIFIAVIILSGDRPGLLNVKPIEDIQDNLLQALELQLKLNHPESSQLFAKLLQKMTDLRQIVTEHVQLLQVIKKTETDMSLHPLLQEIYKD
Method: The activity of a given compound in binding to PPAR-γ can be assayed routinely according to procedures known in the art. […] The PPAR-γ binding assay described below was used to determine the PPAR-γ binding activities of the compounds of the invention.
Compounds were tested for their ability to bind to PPARγ using a spin plate assay (gel filtration binding assay). […] Each compound was tested in triplicate. […] The plates were centrifuged (Beckman GS-6R) at 2500 rpm for 5 minutes, 170 μl Scitisafe® scintillation fluid (Fisher) was added to each well, the plates were sealed, and after 1 hour, were counted in a Wallac MicroBeta counter. The amount of nonspecific binding, as assessed by control wells containing 10 μM of the corresponding unlabeled ligand, was subtracted from each data point. For each compound tested, the data was averaged and plots of ligand concentration versus CPM of radioligand bound were constructed. Apparent IC50 values were estimated from nonlinear least-squares fit of the data assuming simple competitive binding.

[2] = read-out: IC50 range in the PPAR-γ Binding Assay

Row | Structure (SMILES) | IC50 [1, 2] | melting point | IC50 [1]
1 | COc1cccc(Cn2c(C(=O)O)c(-c3ccc(C(C)(C)C)cc3)c3cc(COCC4CC4)ccc32)c1 [Example 266] | 0.1 to 9.99 nM | 79 to 80 °C | 
2 | COc1ccc(-c2c(C(=O)O)n(Cc3cccc(OC)c3)c3c(N(C)C(=O)C4CC4)cccc23)cc1 [Example 303] | 10 to 10000 nM | 98 °C (dec.) | 
3 | O=C(O)c1c(C#Cc2ccccc2)c2ccccc2n1Cc1cccc(C(F)(F)F)c1 [Example 244] | 0.1 to 9.99 nM | 165 to 167 °C | 
4 | COc1cccc(Cn2c(C(=O)O)c(-c3ccc(C(C)(C)C)cc3)c3cc(NCC4CC4)ccc32)c1 [Example 335] | 0.1 to 9.99 nM | 180 to 181 °C | 
5 | COc1ccc(-c2c(C(=O)NS(=O)(=O)c3ccc(C)cc3)n(Cc3cccc(C(F)(F)F)c3)c3ccccc23)cc1 [Example 358] | 10 to 10000 nM | 162 °C | 
6 | O=C(O)c1c(/C=C/c2ccccc2)c2ccccc2n1Cc1cccc(C(F)(F)F)c1 [Example 243] | 0.1 to 9.99 nM | 183 to 185 °C | 
7 | COc1cccc(Cn2c(C(=O)O)c(-c3ccc(C(C)(C)C)cc3)c3cc(C4CCCC4)ccc32)c1 [Example 273] | 0.1 to 9.99 nM | 192 to 193 °C | 
8 | COc1ccc(C(=O)c2c(C(=O)O)n(Cc3cccc(C(F)(F)F)c3)c3ccccc23)cc1 [Example 242] |  | 215 to 216 °C | 10 to 10000 nM
9 | COc1cccc(Cn2c(C(=O)O)c(-c3cccc(NC(=O)NC4CC4)c3)c3ccccc32)c1 [Example 294] | 10 to 10000 nM | 110 °C (dec.) | 
10 | COc1cccc(Cn2c(C(=O)O)c(-c3ccc(C(C)(C)C)cc3)c3cc4c(cc32)OCO4)c1 [Example 277] | 0.1 to 9.99 nM | 179.1 to 179.7 °C | 
11 | O=C(O)c1c(-c2cccc(OCC3CC3)c2)c2ccccc2n1Cc1ccc(F)cc1 [Example 339, 3-[3-(Cyclopropylmethoxy)phenyl]-1-[(4-fluorophenyl)methyl]indole-2-carboxylic Acid] | 0.1 to 9.99 nM | 200 to 202 °C | 
12 | Cc1cccc(-c2c(C(=O)O)n(Cc3cccc(OCC4CC4)c3)c3ccccc23)c1 [Example 299] | 0.1 to 9.99 nM | 58 to 60 °C | 
13 | COc1cccc(Cn2c(C(=O)O)c(-c3ccc(C(=O)NC4CC4)cc3)c3ccccc32)c1 [Example 323, 3-[4-(N-cyclopropylcarbamoyl)phenyl]-1-[(3-methoxyphenyl)methyl]indole-2-carboxylic acid] | 10 to 10000 nM | 237 °C | 
14 | CC(=O)c1cccc(-c2c(C(=O)O)n(Cc3cccc(OCC4CC4)c3)c3ccccc23)c1 [Example 290] | 0.1 to 9.99 nM | 103 °C | 
15 | COc1ccc(Cc2c(C(=O)O)n(Cc3cccc(OCC4CC4)c3)c3ccccc23)cc1 [Example 297] | 0.1 to 9.99 nM | 168 to 170 °C | 
16 | COc1ccc(-c2c(C(=O)O)n(Cc3cccc(OC)c3)c3ccc(C(C)=O)cc23)cc1 [Example 301] | 10 to 10000 nM | 190 °C (dec.) | 
17 | COc1cccc(Cn2c(C(=O)O)c(-c3ccc(C(C)(C)C)cc3)c3cccc(NC(=O)NC4CC4)c32)c1 [Example 291] | 10 to 10000 nM | 168 °C (dec.) | 
18 | COc1ccc(C(=O)c2c(C(=O)O)n(Cc3cccc(OC)c3)c3ccccc23)cc1 [Example 241] |  | 68 to 69 °C | 10 to 10000 nM
19 | O=C(O)c1c(-c2ccc(OCC3CC3)cc2)c2ccccc2n1Cc1ccc(F)cc1 [Example 341] | 0.1 to 9.99 nM | 197 to 198 °C | 
